Consider 3 compounds from patent US10265311B2, “Methods and compositions for treatment of disorders ameliorated by muscarinic receptor activation” (PureTech Health LLC, priority 2009, dated 2019).

For series [1] the following is noted: with the anticholinergic agent glycopyrrolate; escalating amounts of RS-86; Alzheimer's Disease; cited from earlier work.
Series [2] relates to normal healthy volunteers. The experiment in a line: Phase I double-blind randomized multiple-dose study, xanomeline alone vs xanomeline with trospium chloride: adverse event incidence. In kind it is in vivo, human. The text has this:
We conducted a Phase I, double-blind, randomized multiple-dose pilot study of xanomeline administered alone compared to xanomeline administered in combination with trospium chloride in normal healthy volunteers. […] The parameters of the study were as follows:
70 total study subjects were randomized, and of these, 68 study subjects received at least one assessment on day 3, which was the first day of xanomeline administration. The demographics of the study subjects were as follows:
The incidence and number of cholinergic adverse events in the evaluable population of the study was as follows, with all p-values based on a chi-squared test, with the exception of those marked with a * which werebased on a Fisher's exact test: […]

For series [3] the following is noted: methscopolamine given with xanomeline; Medina et al. 1997; cited from earlier work.
Where [4] appears, read: evaluable population, xanomeline 75 mg TID, trospium 20 mg BID or placebo, 7 days.

On to `CCN1C(=O)CC2(CCN(C)CC2)C1=O` [RS-86], for which the improvement in cognition result in series [1] was “did not result in any improvement in cognition”.

As for `CCCCCCOc1nsnc1C1=CCCN(C)C1` [Xanomeline + placebo, Xanomeline], in series [2] (evaluable population, 7 days), the “Salivation, % of subjects” value stood at 36.4% and the “Sweating, % of subjects” value was determined as 48.5%. Besides, in series [2] (setting [4]), the “Any cholinergic TEAEs, # of events” value is 64; the “Any cholinergic TEAEs, % of subjects” value came out at 63.6%; the “Any cholinergic TEAEs, n subjects” value is 21. Moreover, the “Any cholinergic TEAEs, % of subjects” value in series [2] (evaluable population, xanomeline 75 mg TID, trospium 20 mg BID or placebo, 7 days, listed as xanomeline+placebo) was 63%. Also, in series [2] (in vivo), the “Any SAE, # events” value is 0; the “Any SAE, %” value came to 0.0%; the “Any study drug related TEAE, # events” value came to 92; the “Any study drug related TEAE, %” value is listed as 69.7%. Further, in series [2] (in vivo), the “Max Severity of TEAE Mild, %” value is “(66.7) N/A %”; the “Max Severity of TEAE Moderate, %” value is on record as “(15.2) N/A %”; the “Max Severity of TEAE Severe, %” value is reported as “(0.0) %”; the “Max severity of study drug related TEAE Mild, %” value was “(57/6) N/A”. In addition, in series [2] (in vivo), the “Max severity of study drug related TEAE Moderate, %” value is “(12.1) N/A %” and the “Max severity of study drug related TEAE Severe, %” value is “(0.0) N/A %”.

Take `C[N+]1(C)[C@@H]2C[C@@H](OC(=O)[C@H](CO)c3ccccc3)C[C@H]1[C@@H]1O[C@@H]12` [methscopolamine]: the “effect on syncope, a side effect observed with xanomeline” value in series [3] was “no effect on syncope”.
